In the Deep4Chem optical property database one finds emission maximum data, which are given here for 42 molecules.

Molecules are shown by their SMILES.

The series in a line: solvent given as SMILES.

For the molecule `O=C(c1ccc(-n2c3ccc(-c4ccccc4)cc3c3cc(-c4ccccc4)ccc32)cc1)c1ccc(-n2c3ccc(-c4ccccc4)cc3c3cc(-c4ccccc4)ccc32)cc1`, under “in Cc1ccccc1”, the emission maximum was found to be 438 nm.

The molecule `CC(C)(C)c1ccc2c(c1)c1cc(C(C)(C)C)ccc1n2-c1cc(N2c3ccccc3C(c3ccccc3)(c3ccccc3)c3ccccc32)cc(-n2c3ccc(C(C)(C)C)cc3c3cc(C(C)(C)C)ccc32)c1C#N` displayed an emission maximum (in Cc1ccccc1) of 458 nm.

Where the note is “in ClCCl”, `CC(=O)c1c(N[C@@H](Cc2ccccc2)C(=O)O)c2ccc(N(C)C)cc2oc1=O` returned an emission maximum of 450 nm.

`CCc1c(C)[nH]c(C2=[N+]3C(=Cc4c(C)c(CC)c(C)n4[B-]3(F)F)c3ccccc32)c1C`: the emission maximum (in C1CCOC1) was 644 nm; the emission maximum (in CC#N) is reported as 643 nm; the emission maximum (in CCCCCC) turned out to be 641 nm; the emission maximum (in CO) stood at 642 nm; the emission maximum (in Cc1ccccc1) worked out at 651 nm; the emission maximum (in ClCCl) was found to be 650 nm.

The molecule `c1cc2c3c(cccc3c1)-c1cc3c(ccc4ccccc43)cc1-2` registered an emission maximum (in CCCCCCC) of 410 nm.

For the molecule `COC(=O)c1cc(=O)n(C)c2cc(-c3ccc4c(c3)OCCO4)sc12`, the emission maximum reads like this: (in CC#N) 478 nm; (in ClCCl) 473 nm.

For the setting “in Cc1ccccc1”, `CC1(C)OB(c2cc3ccc4cc(B5OC(C)(C)C(C)(C)O5)cc5ccc(c2)c3c45)OC1(C)C` had an emission maximum of 400 nm.

As for `C(=C\c1ccc(/C=C/c2ccc(N(c3ccccc3)c3ccccc3)cc2)c2nsnc12)/c1ccc(N(c2ccccc2)c2ccccc2)cc1`, the emission maximum runs as follows: (in C1CCOC1) 637 nm; (in CCOC(C)=O) 627 nm; (in CN(C)C=O) 690 nm; (in Cc1ccccc1) 611 nm; (in ClC(Cl)Cl) 651 nm; (in ClCCl) 659 nm.

Where the note is “in C1CCOC1”, `C(=C\c1cc2ccccc2c2ccccc12)/c1c2ccccc2cc2ccccc12` showed an emission maximum of 510 nm.

In turn, `O=P(c1ccccc1)(c1ccccc1)c1cccc(-c2nc3ccccc3n2-c2cccc(P(=O)(c3ccccc3)c3ccccc3)c2)c1` yielded an emission maximum (in ClCCl) of 376 nm.

As for `c1ccc([B-]2(c3ccccc3)Oc3ccc4ccccc4c3-c3c4ccccc4nc[n+]32)cc1`, the emission maximum (in Cc1ccccc1) worked out at 543 nm.

For the setting “in O”, `CCCCn1c(-c2ccc(-c3ccc(-c4ccc(-c5n(CCCC)c6ccccc6[n+]5CCCC)cc4)cc3)cc2)[n+](CCCC)c2ccccc21` had an emission maximum of 397 nm.

For `CCOC(=O)c1ccccc1-c1c2ccc(=O)cc-2oc2cc(OC(=O)[C@H](CO[Si](C)(C)C(C)(C)C)NC(=O)OC(C)(C)C)ccc12`, the emission maximum is, setting by setting: (in C1CCOC1) 512 nm; (in CC#N) 542 nm; (in CCO) 525 nm; (in CS(C)=O) 547 nm.

As to `CCCCCCCCN1c2ccc(C#Cc3ccc(OC)cc3)cc2Sc2cc(C=O)ccc21`, the emission maximum by setting is: (in C1CCOC1) 512 nm; (in CC#N) 538 nm; (in CCCCCC) 494 nm; (in CO) 464 nm; (in CS(C)=O) 524 nm; (in Cc1ccccc1) 510 nm. Moreover, the emission maximum (in ClC(Cl)Cl) is given as 524 nm.

As to `N#Cc1cc2ccc3cc(C#N)c4ccccc4c3c2c2ccccc12`, for the setting “in ClC(Cl)Cl”, the emission maximum is listed as 429 nm.

Regarding `Nc1ccc2c(c1)oc(=O)c1c(=O)oc3ccccc3c12`, the emission maximum is 534 nm (in CS(C)=O) and 498 nm (in ClCCl).

Where the note is “in C1CCCCC1”, `COc1ccc2c3c(c4ccc(OC)cc4c2c1)C(C)(C)c1ccccc1-3` gave an emission maximum of 391 nm.

Take `COc1ccc(-c2cc3c(s2)c(C(C)=O)cc(=O)n3Cc2ccccc2)cc1`: the emission maximum is listed as 515 nm (in CC#N) and 512 nm (in ClCCl).

As to `CCOC(=O)COc1ccc(C(c2c(C)[nH]c3ccccc23)c2c(C)[nH]c3ccccc23)cc1OC`, the emission maximum was 329 nm (in C1CCCCC1), 340 nm (in CC#N), 345 nm (in CO) and 350 nm (in O).

Consider `CCc1ccc(-c2nc(-c3ccc(-n4c5ccccc5c5ccccc54)cc3)cc(-c3ccc(-n4c5ccccc5c5ccccc54)cc3)n2)cc1`, for which the emission maximum reads like this: (in C1CCOC1) 436 nm; (in CN(C)C=O) 482 nm; (in Cc1ccccc1) 402 nm; (in ClC(Cl)Cl) 435 nm.

For the setting “in C1CCOC1”, `CCCCC1(CCCC)c2cc(C#Cc3ccc(C=C4c5ccccc5-c5ccccc54)cc3)ccc2-c2ccc(C#Cc3ccc(C=C4c5ccccc5-c5ccccc54)cc3)cc21` gave an emission maximum of 406 nm.

For the setting “in Cc1ccccc1”, `COc1cc(C2=c3c(c4ccc(C(C)(C)C)cc4c4cc(C(C)(C)C)ccc34)=[N+]3C2=Nc2c(-c4cc(OC)c(OC)c(OC)c4)c4c5ccc(C(C)(C)C)cc5c5cc(C(C)(C)C)ccc5c4n2[B-]3(F)F)cc(OC)c1OC` had an emission maximum of 816 nm.

Under “in ClCCl”, `N#Cc1cccc(-c2cccc(-c3nc(-c4cccc(-c5cccc(C#N)c5)c4)nc(-c4cccc(-c5cccc(C#N)c5)c4)n3)c2)c1` returned an emission maximum of 420 nm.

The molecule `Cc1cc(C)c(B2c3cc(C(C)(C)C)ccc3-c3c(-c4ccccc4)ccc4cc(C(C)(C)C)cc2c34)c(C)c1` showed an emission maximum (in C1CCCCC1) of 470 nm.

`CCCN1/C(=C/C=C(/C=C/C2=[N+](CCC)c3ccccc3C2(C)C)c2ccc3ccccc3n2)C(C)(C)c2ccccc21`: the emission maximum is 652 nm (in CO), 664 nm (in CS(C)=O) and 653 nm (in O).

The molecule `O=CC1=C(c2ccc(-c3cccs3)s2)CC1` returned an emission maximum (in C1CCOC1) of 470 nm; an emission maximum (in CC#N) of 493 nm; an emission maximum (in CCCCCC) of 464 nm; an emission maximum (in CCO) of 516 nm; an emission maximum (in OCCOCCO) of 526 nm; an emission maximum (in c1ccncc1) of 495 nm.

Under “in CCO”, `Cc1c(COC(=O)c2ccc(I)cc2)n2c(OCC(=O)c3ccc(I)cc3)c(C)c(=O)n2c1=O` displayed an emission maximum of 458 nm.

Turning to `CC1(C)C(/C=C/C2=C(Oc3ccc(CCN=C=S)cc3I)C(=C/C=C3/N(CCCS(=O)(=O)[O-])c4ccccc4C3(C)C)/CCC2)=[N+](CCCS(=O)(=O)[O-])c2ccccc21`, the emission maximum (in CO) worked out at 796 nm.

`FC(F)(F)C(F)(F)C(F)(F)C1=NC2=C(Br)C=C3c4cc(Br)c5nc(C(F)(F)C(F)(F)C(F)(F)F)nc6c(Br)cc(c4c56)=C4C=C(Br)C(=N1)C2C34` (stereo unspecified) registered an emission maximum (in C1CCOC1) of 486 nm.

On to `CCCCC(CC)CN1C(=O)C2=C(c3ccc(-c4ccc(C5=C6C(C)=CC(C)=[N+]6[B-](F)(F)n6c(C)cc(C)c65)cc4)s3)N(CC(CC)CCCC)C(=O)C2=C1c1ccc(-c2ccc(C3=C4C(C)=CC(C)=[N+]4[B-](F)(F)n4c(C)cc(C)c43)cc2)s1` (stereo unspecified), for which the emission maximum (in Cc1ccccc1) is recorded as 637 nm.

With `c1ccc2cc(-n3cnc4ccccc43)ccc2c1`, the emission maximum amounted to 374 nm (in C1CCCCC1); 374 nm (in C1CCOC1); 376 nm (in CC#N); 376 nm (in CCO); 375 nm (in CCOC(C)=O); 376 nm (in CCOCC). In addition, the emission maximum runs as follows: (in CO) 377 nm; (in Cc1ccccc1) 374 nm; (in ClC(Cl)Cl) 375 nm.

Molecule `CC(C)(C)c1ccc(Oc2cc3c4c(cc(Oc5ccc(C(C)(C)C)cc5)c5c6c(Oc7ccc(C(C)(C)C)cc7)cc7c8c(cc(Oc9ccc(C(C)(C)C)cc9)c(c2c45)c86)C(=O)N(c2ccccc2)C7=O)C(=O)N(c2ccccc2)C3=O)cc1` showed an emission maximum (in ClC(Cl)Cl) of 617 nm.

Regarding `CN(C)c1ccc(-c2nc(-c3ccccc3)n3ccccc23)cc1`, the emission maximum (in ClC(Cl)Cl) is 524 nm.

In the case of `O=C1[C@@H]2[C@H](C(=O)N1c1cccc3cc4ccccc4cc13)[C@@H]1C=C[C@H]2C1`, under “in ClC(Cl)Cl”, the emission maximum is reported as 392 nm.

As to `Cc1ccc(N(c2ccc(C)cc2)c2c3ccccc3c(N(c3ccc(C)cc3)c3ccc(C)cc3)c3ccccc23)cc1`, for the setting “in Cc1ccccc1”, the emission maximum turned out to be 533 nm.

Regarding `Brc1cnc(-c2ccc(N(c3ccccc3)c3ccccc3)cc2)s1`, for the setting “in CO”, the emission maximum turned out to be 493 nm.

For the molecule `CC1(C)c2ccccc2N(c2ccc(C(=O)c3cc(C(=O)c4ccc(N5c6ccccc6C(C)(C)c6ccccc65)cc4)cc(C(=O)c4ccc(N5c6ccccc6C(C)(C)c6ccccc65)cc4)c3)cc2)c2ccccc21`, the emission maximum was 530 nm (in Cc1ccccc1) and 521 nm (in c1ccc2c(c1)c1ccccc1n2-c1ccc(-c2ccc(-n3c4ccccc4c4ccccc43)cc2)cc1).

In the case of `COC1(OC)C2(Cl)c3nc4cc(-c5cccs5)ccc4nc3C1(Cl)C1C[C@H]3[C@@H](CC12)C1(Cl)c2nc4ccc(-c5cccs5)cc4nc2C3(Cl)C1(OC)OC` (stereo partly specified), the emission maximum is reported as 461 nm (in CC#N); 412 nm (in CCCCCC); 439 nm (in CCOC(C)=O); 491 nm (in CO); 427 nm (in Cc1ccccc1); 441 nm (in ClC(Cl)Cl). Moreover, the emission maximum (in ClCCl) was 445 nm.

With `CN(C)c1ccc(-c2nc(-c3ccc(N(C)C)cc3)c3ccccc3n2)cc1`, the emission maximum came out at 436 nm (in C1CCCCC1); 528 nm (in C1CCOC1); 571 nm (in CC#N); 575 nm (in CS(C)=O); 530 nm (in ClCCl).

Take `COC(=O)/C(C#N)=c1\s/c(=c2/s/c(=C(/C#N)C(=O)OC)c3cc(-c4ccc(OC)cc4)sc23)c2sc(-c3ccc(OC)cc3)cc12`: the emission maximum (in Cc1ccccc1) was found to be 680 nm.

For `CCn1c(-c2ccc(-c3ccc4c(c3)C3(c5ccccc5-c5ccccc53)c3ccccc3-4)cc2)c(-c2ccc3ccccc3c2)c(-c2ccc3ccccc3c2)c1-c1ccc(-c2ccc3c(c2)C2(c4ccccc4-c4ccccc42)c2ccccc2-3)cc1`, the emission maximum (in CCOC(C)=O) was 441 nm.

As to `C[C@]12SC(=O)C=C1c1nc(-c3ccccc3O)[nH]c1C1=CC(=O)S[C@@]12C`, for the setting “in CC#N”, the emission maximum is listed as 407 nm.
